{
  "source": "paper PMC12606464",
  "about": "“Investigating NFE2L1 activators for targeted protein aggregate clearance: a follow-up study” (RSC Medicinal Chemistry, 2025)",
  "key": {"[1]": {"tested_on": "ubiquitin-proteasome system", "experiment": "Ub-G76V-GFP reporter degradation in U2OS cells", "assay_type": "cell-based", "from_the_text": "(§1) We next examined whether the selected RUN compounds activate the NFE2L1 pathway in a stress-independent manner, while preserving normal ubiquitin-dependent proteasomal degradation. This distinction is crucial, as the therapeutic benefit of NFE2L1 activation lies in its ability to alleviate proteotoxic stress and target disease-related proteins for degradation without compromising normal proteostasis. To assess this, U2OS cells stably expressing the short-lived fluorescent reporter Ub-G76V-GFP were treated with various concentrations of RUN compounds. […] We also examined whether compound-induced activation of NFE2L1 could be attributed to the generation of reactive oxygen species (ROS). To test this, the 3×PSMA4-ARE-LUC reporter assay was performed in the presence or absence of the antioxidant N-acetyl-L-cysteine (NAC). A decrease in reporter activity upon NAC treatment would indicate pathway activation through oxidative stress.\nRUN compound (5 µM) for 8 hours. Fluorescence intensity was normalized to cell viability (measured by the alamarBlue assay) and compared to vehicle control (DMSO). Unlike the […]\nas means ± SD from three independent experiments (n = 3). Statistical analysis was performed using a multiple unpaired t-test with Welch’s correction, with adjustment for multiple comparisons by the Holm–Šídák method (α = 0.05). ****p<0.0001. Detailed results of the analysis are shown in Supplementary Table S14. […]\n2.4 Monitoring protein degradation using UbG76V-GFP reporter cells\nU2OS cells stably expressing the Ub-G76V-GFP reporter were seeded into 96-well plates at and cultured overnight under standard conditions. On the following day, cells were treated with the indicated test compounds or DMSO vehicle control for 8 hours. After treatment, GFP fluorescence intensity was measured, providing a readout of proteasome-dependent degradation of the Ub-G76V-GFP substrate. Cell viability was then assessed in the same wells using the alamarBlue assay according to the manufacturer’s protocol. Viability values were used for normalization of fluorescence data to account for differences in cell number. Accumulation of GFP signal relative to DMSO-treated controls was interpreted as reduced degradation of UPS substrates, indicating potential effects of the compounds on the natural protein turnover.\nStatistical comparison of RUN compounds with ASC-JM17 was performed using a multiple unpaired t-test with Welch’s correction, with adjustment for multiple comparisons by the Holm–Šídák method (α = 0.05) in GraphPad Prism (v 10.6.1). […]\nRNA was extracted using […]\nthe RNeasy® Plus Micro Kit according to the manufacturer’s instructions. Complementary DNA (cDNA) was synthesized from RNA using either t he TATAA GrandScript cDNA Supermix (TATAA Biocenter) or the QuantiTect® Reverse Transcription Kit (Qiagen), following the respective protocols. Quantitative RT -PCR was performed on a LightCycler® 480 instrument (Roche Life Science) using the TATAA SYBR® Gr andMaster® Mix (TATAA […]\nBiocenter). Gene expression levels were normalized to RPLP0, and relative expression was calculated using the ΔΔCt method. Data were expressed as fold change relative to the corresponding DMSO control. Statistical analysis of changes in gene expression was performed w ith a ratio paired t-test corrected for multiple comparisons using Holm-Šídák's method (α = 0.05) in GraphPad Prism (v 10.6.1).\nTable S1. Sequences of primer pairs used in the qRT -PCR analysis of gene expression."}, "[2]": {"tested_on": "NFE2L1 pathway (DDI2-dependent) in HCT116 cells", "experiment": "3×PSMA4-ARE-LUC reporter in HCT116 WT and DDI2 knockout cells", "assay_type": "cell-based, human", "description": "(§2) Fig. 1 (A) Targeted library screening of RUN compounds using the 3×PSMA4-ARE-LUC dual reporter assay in HEK293 cells. Cells were exposed to RUN compounds (5 μM) for 16 hours, and luciferase activity was measured. Data are presented as the mean ± SD from three independent experiments (n = 3). Results are shown as a fold change in luminescence relative to DMSO-treated cells. Selected hit compounds are highlighted in distinct colours. (B) RUN-89 specifically activates the NFE2L1 pathway. The DDI2 knockout (KO) and parental (WT) HCT116 cells were transfected with the 3×PSMA4-ARE-LUC reporter and treated with 0.5 μM bortezomib (BTZ) and 5 μM RUN-89 for 16 hours. Data are presented as the Geomean ± GeoSD of three independent experiments (n = 3). Statistical analysis was performed on log2-transformed values using two-way repeated-measures ANOVA followed by Šídak's multiple comparison test. (C) RUN-89 selectively triggers downstream signaling events associated with NFE2L1 gene expression. HEK293 cells were transfected with lipid nanoparticles (LNPs) carrying siRNAs targeting NFE2L1 or NFE2L2. LNPs formulated with non-targeting siRNA served as a negative control. Following 24 hours of incubation, cells were treated with 7.5 μM RUN-89 or DMSO (vehicle) for an additional 16 hours. Expression of the proteasomal subunit gene PSMC4 was then quantified by RT-qPCR. Data are shown as the Geomean ± GeoSD from three independent biological replicates (n = 3). Log2-transformed data were analyzed using two-way repeated-measures ANOVA with the Geisser–Greenhouse correction, followed by Tukey's multiple comparison test with individual variances computed for each comparison. Additional results for NFE2L1, NFE2L2, PSMB7, and PSMD12 are presented in SI Fig. S10.\nTo clarify whether the representative compound RUN-89 activates the NFE2L1-specific luciferase reporter independently of the KEAP1–NFE2L2 pathway, we used the 3×PSMA4-ARE-LUC dual reporter in previously published DDI2 knockout HCT116 cells (from ATCC CCL-247 (RRID:CVCL_0291)), in which the protease essential for NFE2L1 activation is disrupted. […] These findings indicate that RUN-89 activates the reporter construct through NFE2L1.\n2 Biology Experimental Procedures […]\n(§3) Cell lines were sourced from the ATCC (USA) and/or ECACC (UK), namely HCT116 (human colorectal carcinoma), ATCC CCL-247 (RRID:CVCL_0291), HEK-293 (human embryonic kidney), ATCC CRL-1573 (RRID:CVCL_0045), SH-SY5Y (human neuroblastoma), ATCC CRL-2266 (RRID:CVCL_0019). The characteristics of DDI2 knockout cells derived from HCT116 cells have been described previously (Sedlacek et al., 2025). All cell lines were tested for mycoplasma contamination. Most of the cell lines were cultured in Dulbecco's Modified Eagle Medium (DMEM) enriched with 10% fetal bovine serum (FBS) and 2 mM L-glutamine, under standard conditions of 37 °C with 5% CO₂. DNA transfection was performed with Lipofectamine 2000, following the manufacturer's instructions. […]\nalamarBlue assay according to the standard protocol.(1)\n2.3 Dual luciferase phenotypic assays\nHEK293-derived cells stably expressing the 3×PSMA4-ARE-Luc reporter were maintained at low to mid passage numbers before use. For each experiment, cells were transiently transfected with the pRL-TK Renilla luciferase plasmid using Lipofectamine 2000.\nApproximately 5–6 hours post-transfection, cells were seeded into plate format according to the experiment (384-well plate mostly). On the following day, cells were treated with the indicated test compounds or DMSO vehicle control for 16 hours (unless otherwise specified).\nAfter treatment, cells were lysed and luciferase activities were quantified using the Dual-Luciferase® Reporter Assay System according to the manufacturer’s instructions and established protocols.(2, 3) For assays using the CMV-XBP-Gluc construct encoding Gaussia […]"}, "NFE2L1 pathway [3]": {"tested_on": "NFE2L1 pathway", "experiment": "3×PSMA4-ARE-LUC dual luciferase reporter assay in HEK293 cells", "assay_type": "cell-based, human", "conditions": "Homo sapiens; 5 μM, 16 h, HEK293, luminescence relative to DMSO-treated cells; read-out: NFE2L1 activation [5 μM]", "from_the_text": "In our previous work,[43] we developed a library of NFE2L1 stimulators using a cell-based luciferase reporter assay. This system was based on three tandem copies of the antioxidant response element (ARE) derived from the NFE2L1 target gene proteasome subunit alpha type-4 (3xPSMA4, PSMA4-ARE-LUC). It was designed to detect the proteasome “bounce-back” response induced by proteasome inhibitors such as MG132 or bortezomib.[22,43,45,46] The reporter assay was adapted to a 384-well format and used to evaluate a new set of RUN compounds designed around the structural framework of the RUN-47 activator. We focused on identifying compounds that increased the 3×PSMA4-ARE-LUC signal (Fig. 1A), while simultaneously assessing cytotoxicity (see the SI, Fig. S2). […] In contrast, thiourea- and urea-containing derivatives generally produced only weak to intermediate responses, rarely exceeding a fold change of 7.\nas §2\nFigure S1: Concentration–response of luciferase cell-based assay (PSMA4-ARE-luc2P reporter) on treatment with RUN-81, RUN-89, and RUN-94. Concentration is plotted on the X-axis. Dose–response relationships were analyzed using a four-parameter logistic curve (4PL), or a bell-shaped dose-response curve, both with weighting 1/Y^2. Dotted lines represent 95% confidence bands. Calculated EC₅₀ values, curve parameters, and asymmetrical confidence intervals are summarized in the accompanying table . Data are presented as mean ± SD from four independent experiments (n=4).\n(§4) 2 Biology Experimental Procedures\n(§5) Safety statement: No unexpected or unusually high safety hazards were encountered. […]\nMost of the cell lines were cultured in Dulbecco's Modified Eagle Medium (DMEM) enriched with 10% fetal bovine serum (FBS) and 2 mM L-glutamine, under standard conditions of 37 °C with 5% CO₂. DNA transfection was performed with Lipofectamine 2000, following the manufacturer's instructions. Transgenic cells were then selected with either G418 (400 µg/mL) or hygromycin B (450 µg/mL), based on the selection marker encoded by the plasmid used. Cell viability was evaluated using the […]"}, "HEK293 cells": {"tested_on": "HEK293 cells", "experiment": "alamarBlue cytotoxicity assessment in HEK293 cells", "assay_type": "cell-based, human", "conditions": "HEK293, alamarBlue, 16 h; concentration not given", "description": "Figure S2: Concentration-dependent cytotoxicity assessment of RUN compounds.\nHEK293 cells were treated for 16 hours with increasing concentrations of RUN compounds (1.25 µM; 2.5 µM; 5; 7.5 and 10 µM) or DMSO (negative control). Cell viability was determined using the alamarBlue assay following the protocol of Riss.(1) Data are presented as means ± SD from three independent experiments (n = 3). Statistical analysis was done using repeated measures one-way ANOVA with Geisser–Greenhouse correction, followed by Dunnett’s multiple comparisons test. *p<0.05. Detailed results of the analysis are shown in […]\n(1 picture or pasted object on this page, not shown here)\nas §4, §5\nas §3, with “instructions. Transgenic cells were then selected with either G418 (400 µg/mL) or hygromycin B (450 µg/mL), based on the selection marker encoded by the plasmid used.” for “instructions.”"}, "NFE2L1 pathway [4]": {"tested_on": "NFE2L1 pathway", "experiment": "3×PSMA4-ARE-LUC reporter with or without N-acetyl-L-cysteine (NAC)", "assay_type": "cell-based, human", "conditions": "HEK293, 5 μM, 16 h", "from_the_text": "as §1, with “stress. […]” for “stress.”\nTo determine whether RUN compounds activate the NFE2L1 pathway via reactive oxygen species (ROS) generation or through Keap1-NRF2 pathway crosstalk, we used the 3xPSMA4-ARE-LUC dual reporter assay in HEK293 cells. […] A reduction in luminescence signal upon NAC co-treatment would indicate that the compound activates the reporter via ROS-mediated mechanism or Keap1-NRF2-dependent oxidative/electrophilic stress. […]"}},
  "data": [
    {"smiles": "COc1ccc(/C=C/C(=O)C(CC2CCC2)C(=O)/C=C/c2ccc(OC)c(OC)c2)cc1OC", "note": "[ASC-JM-17, reference compound]", "values": [
      {"measurement": "Ub-G76V-GFP reporter assay, mean", "setting": "[1]; U2OS cells, Fig. S3", "value": 4.073},
      {"measurement": "Ub-G76V-GFP degradation (ubiquitin-proteasome system function)", "setting": "[1]; U2OS, 5 μM, 8 h, versus DMSO", "value": "impaired proteasomal degradation"}
    ]},
    {"smiles": "CC(C)C[C@H](NC(=O)[C@H](Cc1ccccc1)NC(=O)c1cnccn1)B(O)O", "note": "[BTZ, bortezomib, reference compound]", "values": [
      {"measurement": "Mean log2-transformed reporter fold change, HCT116 KO 04", "setting": "[2]; DDI2-/- clone KO 04, 0.5 μM BTZ or 5 μM RUN-89, 16 h, DMSO = 0", "value": 0.1712},
      {"measurement": "Mean log2-transformed reporter fold change, HCT116 KO 11", "setting": "[2]; DDI2-/- clone KO 11, 0.5 μM BTZ or 5 μM RUN-89, 16 h, DMSO = 0", "value": 0.1696},
      {"measurement": "Reporter activity in DDI2-deficient cells", "setting": "[2]; DDI2 knockout HCT116, in contrast to wild-type cells", "value": "neither the proteasome inhibitor bortezomib nor RUN-89 induced reporter activity"},
      {"measurement": "Mean log2-transformed reporter fold change, HCT116 WT", "setting": "[2]; WT (DDI2+/+), 0.5 μM BTZ or 5 μM RUN-89, 16 h, DMSO = 0", "value": 1.529}
    ]},
    {"smiles": "COc1ccc(/C=C2\\CNC/C(=C\\c3ccc(OC)c(OC)c3)C2=O)cc1OC", "note": "[RUN-84]", "values": [
      {"measurement": "fold induction at 5 µM", "setting": "NFE2L1 pathway [3]", "value": 4},
      {"measurement": "Tox [% of ctrl.]", "setting": "HEK293 cells", "value": "73% of ctrl."},
      {"measurement": "NFE2L1 reporter activation in the presence of NAC", "setting": "NFE2L1 pathway [4]", "value": "reduction in activation"}
    ]}
  ]
}
